Where “and” joins values, the source holds several entries; their conditions need not be identical. Equal values may be shown once. Toxic doses and inconclusive results are not listed. Cut-off read from the data, not from the text of the source: active = T/C of 150% or more; inactive = T/C below 125%.
Test system: L1210 leukemia ip in BDF1 mice, survival T/C
Test: NCI In Vivo Anticancer Drug Screen. Data for tumor model L1210 Leukemia (intraperitoneal) in B6D2F1 (BDF1) mice
Details: endpoint: mean survival time, higher = longer survival
Summary of the method: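 Antitumor effect is assessed in tumor-bearing animals. Survival in the compound arm is compared with a vehicle-dosed control arm and expressed as their quotient.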

[1] = dose: 50.0 mg/kg/injection, schedule: Q01DX009 (ip), vehicle: Klucel (hydroxypropylcellulose) (HPC)
[2] = dose: 100.0 mg/kg/injection, schedule: Q01DX009 (ip), vehicle: Klucel (hydroxypropylcellulose) (HPC)
[3] = dose: 100.0 mg/kg/injection, schedule: Q04DX003 (ip), vehicle: saline with Tween-80
[4] = dose: 200.0 mg/kg/injection, schedule: Q04DX003 (ip), vehicle: saline with Tween-80
[5] = dose: 400.0 mg/kg/injection, schedule: Q04DX003 (ip), vehicle: saline with Tween-80
[6] = dose: 100.0 mg/kg/injection, schedule: Q01DX009 (ip), vehicle: saline with Tween-80

Measured: T/C

N#CC(C#N)=Cc1ccc(C=C(C#N)C#N)cc1
inactive: dose: 25.0 mg/kg/injection, schedule: Q04DX003 (ip), vehicle: Klucel (hydroxypropylcellulose) (HPC) 98 % of control | [1] 103 % of control | dose: 50.0 mg/kg/injection, schedule: Q04DX003 (ip), vehicle: Klucel (hydroxypropylcellulose) (HPC) 98 % of control | [2] 86 % of control | dose: 100.0 mg/kg/injection, schedule: Q04DX003 (ip), vehicle: Klucel (hydroxypropylcellulose) (HPC) 98 % of control and 105 % of control | dose: 200.0 mg/kg/injection, schedule: Q04DX003 (ip), vehicle: Klucel (hydroxypropylcellulose) (HPC) 100 % of control | dose: 400.0 mg/kg/injection, schedule: Q04DX003 (ip), vehicle: Klucel (hydroxypropylcellulose) (HPC) 108 % of control

CCn1c2ccccc2c2cc(/C=C\[N+](=O)[O-])ccc21
inactive: dose: 100.0 mg/kg/injection, schedule: Q04DX002 (ip), vehicle: Klucel (hydroxypropylcellulose) (HPC) 91 % of control | dose: 200.0 mg/kg/injection, schedule: Q04DX002 (ip), vehicle: Klucel (hydroxypropylcellulose) (HPC) 94 % of control | dose: 400.0 mg/kg/injection, schedule: Q04DX002 (ip), vehicle: Klucel (hydroxypropylcellulose) (HPC) 97 % of control

N#Cc1ccc(-n2cccc2)cc1
inactive: dose: 100.0 mg/kg/injection, schedule: Q01DX001 (ip), vehicle: steriod suspending solution 100 % of control | dose: 200.0 mg/kg/injection, schedule: Q01DX001 (ip), vehicle: steriod suspending solution 100 % of control | dose: 400.0 mg/kg/injection, schedule: Q01DX001 (ip), vehicle: steriod suspending solution 101 % of control

CCCCCC(C1=NC(C)(C)CC(C)O1)c1ccccc1 (configuration not stated)
inactive: dose: 100.0 mg/kg/injection, schedule: Q01DX009 (ip), vehicle: saline 103 % of control | dose: 100.0 mg/kg/injection, schedule: Q04DX003 (ip), vehicle: saline sonified 103 % of control | dose: 200.0 mg/kg/injection, schedule: Q01DX009 (ip), vehicle: saline 113 % of control | dose: 200.0 mg/kg/injection, schedule: Q04DX003 (ip), vehicle: saline sonified 117 % of control | dose: 400.0 mg/kg/injection, schedule: Q04DX003 (ip), vehicle: saline sonified 105 % of control

N=C(N)c1ccc(OCCCCOc2ccc(N)cc2Cl)cc1
inactive: [1] 111 % of control | [2] 97 % of control

NC(=S)N/N=C/c1cc2c3c(c1)CCCN3CCC2
inactive: [3] 109 % of control | [4] 103 % of control | [5] 103 % of control

C=C(Br)CNC(=O)NCCN1CCOCC1
inactive: [3] 97 % of control | [4] 111 % of control | [5] 97 % of control

CCCCC[C@H](O)/C=C/[C@H]1[C@H](O)CC(=O)[C@@H]1C/C=C\CCCC(=O)O
inactive: dose: 0.37 mg/kg/injection, schedule: Q04DX002 (ip), vehicle: Klucel (hydroxypropylcellulose) (HPC) 100 % of control | dose: 0.75 mg/kg/injection, schedule: Q04DX002 (ip), vehicle: Klucel (hydroxypropylcellulose) (HPC) 103 % of control | dose: 1.5 mg/kg/injection, schedule: Q04DX002 (ip), vehicle: Klucel (hydroxypropylcellulose) (HPC) 111 % of control | dose: 3.0 mg/kg/injection, schedule: Q04DX002 (ip), vehicle: Klucel (hydroxypropylcellulose) (HPC) 118 % of control | dose: 6.0 mg/kg/injection, schedule: Q04DX002 (ip), vehicle: Klucel (hydroxypropylcellulose) (HPC) 96 % of control | dose: 12.0 mg/kg/injection, schedule: Q04DX002 (ip), vehicle: Klucel (hydroxypropylcellulose) (HPC) 96 % of control | dose: 24.0 mg/kg/injection, schedule: Q04DX002 (ip), vehicle: Klucel (hydroxypropylcellulose) (HPC) 100 % of control | dose: 25.0 mg/kg/injection, schedule: Q04DX002 (ip), vehicle: saline with Tween-80 98 % of control | dose: 50.0 mg/kg/injection, schedule: Q04DX002 (ip), vehicle: saline with Tween-80 98 % of control | dose: 100.0 mg/kg/injection, schedule: Q04DX002 (ip), vehicle: saline with Tween-80 105 % of control | dose: 200.0 mg/kg/injection, schedule: Q04DX002 (ip), vehicle: saline with Tween-80 102 % of control | dose: 400.0 mg/kg/injection, schedule: Q04DX002 (ip), vehicle: saline with Tween-80 98 % of control

Cc1ccc(N=Nc2c(C)nn(C(N)=S)c2C)cc1
inactive: dose: 75.0 mg/kg/injection, schedule: Q01DX001 (ip), vehicle: other 100 % of control | dose: 150.0 mg/kg/injection, schedule: Q01DX001 (ip), vehicle: other 103 % of control

CCOC(=O)C(Br)CCCC(Br)C(=O)OCC (configuration not stated)
inactive: [6] 90 % of control | dose: 400.0 mg/kg/injection, schedule: Q01DX009 (ip), vehicle: saline with Tween-80 89 % of control

CN(C)N=Nc1ccc(Cl)cc1C(N)=O
inactive: [6] 104 % of control | [3] 105 % of control | dose: 200.0 mg/kg/injection, schedule: Q01DX009 (ip), vehicle: saline with Tween-80 110 % of control | [4] 102 % of control | [5] 100 % of control

— PubChem BioAssay AID248 (DTP/NCI, 2004)
